From the OligoGym collection
Several values for one entry are separate records, joined by “and”; a condition that tells them apart may be missing. Equal values may be shown once. After the bases stand the sugars from the 5' end (letter, count) and the backbone: PS all phosphorothioate, else s phosphorothioate and o phosphodiester by linkage. Methylation of C is not given here. e = 2'-O-(2-methoxyethyl) (MOE); k = constrained ethyl (cEt); d = 2'-deoxy (DNA)

biological target: IRF4; conditions: ASO, MM.1R, 0.0625 µM

| Sequence | target mRNA inhibition |
| --- | --- |
| AATGGATAGTTTCTCA (sugars k3 d10 k3, PS) | -2% and -14% |
| ACACTTTTAGAGAGGA (sugars k3 d10 k3, PS) | 32% |
| ACGTGTGCTTGCCAAG (sugars kkdddddddddkdkdk, PS) | 15% |

same assay, conditions: ASO, MM.1R, 0.074 µM

| Sequence | target mRNA inhibition |
| --- | --- |
| AATGGATAGTTTCTCA (sugars k3 d10 k3, PS) | 11% |

same assay, conditions: ASO, MM.1R, 0.222 µM

| Sequence | target mRNA inhibition |
| --- | --- |
| AATGGATAGTTTCTCA (sugars k3 d10 k3, PS) | 8% |
| ACACTTTTAGAGAGGA (sugars k3 d10 k3, PS) | 25% and 41% |

same assay, conditions: ASO, MM.1R, 0.25 µM

| Sequence | target mRNA inhibition |
| --- | --- |
| AATGGATAGTTTCTCA (sugars k3 d10 k3, PS) | 6% and 5% |
| ACACTTTTAGAGAGGA (sugars k3 d10 k3, PS) | 41% |
| ACGTGTGCTTGCCAAG (sugars kkdddddddddkdkdk, PS) | 43% |

same assay, conditions: ASO, MM.1R, 0.666 µM

| Sequence | target mRNA inhibition |
| --- | --- |
| AATGGATAGTTTCTCA (sugars k3 d10 k3, PS) | 23% |

same assay, conditions: ASO, MM.1R, 1 µM

| Sequence | target mRNA inhibition |
| --- | --- |
| AAATCACGAGGTTGCC (sugars k3 d10 k3, PS) | 21% |
| AACGCAAGTCTGAATT (sugars k3 d10 k3, PS) | 3% |
| AAGCAGTGATGTCAGG (sugars kddddddddddkekek, PS) | 28% and 39% |
| AAGCATTTTATCATCC (sugars k3 d10 k3, PS) | 25% |
| AAGCATTTTATCATCC (sugars kkdddddddddekeke, PS) | 25% |
| AAGCATTTTATCATCC (sugars kkdddddddddkekek, PS) | 18% |
| AAGCTTGATAAAGGCT (sugars kkddddddddddkeke, PS) | -18% |
| AAGCTTGATAAAGGCT (sugars kkkdddddddddkeke, PS) | -18% |
| AAGTGTCTAAAGTCCC (sugars kkddddddddddkeke, PS) | 10% and 12% |
| AAGTTCATGTAAAGTC (sugars kddddddddddkekek, PS) | 14% and 6% |
| AAGTTCATGTAAAGTC (sugars kkddddddddddkeke, PS) | 28% and 20% |
| AAGTTCTAGTCGCGCA (sugars k3 d10 k3, PS) | 11% |
| AATGGATAGTTTCTCA (sugars k3 d10 k3, PS) | 21% and 36% |
| AATGGCGGATAGATCT (sugars k3 d10 k3, PS) | 10% and 25% |
| AATGTGTATTACTCTT (sugars kkdddddddddkekek, PS) | 52% and 41% |
| AATTCCTCCACTACCA (sugars k3 d10 k3, PS) | -41% |
| ACACGCCCGACCCTCC (sugars k3 d10 k3, PS) | 4% |
| ACACTTTTAGAGAGGA (sugars kkdddddddddkdkdk, PS) | 3% |
| ACACTTTTAGAGAGGA (sugars kkdddddddddkekek, PS) | 27% |

| Sequence | target mRNA inhibition |
| --- | --- |
| ACAGAGACGCGGTGAG (sugars k3 d10 k3, PS) | 14% |
| ACAGTGACTTGCATCC (sugars k2 d9 e3 k2, PS) | 27% |
| ACAGTGACTTGCATCC (sugars k3 d10 k3, PS) | 34% |
| ACAGTGACTTGCATCC (sugars kddddddddddkekek, PS) | -5% |
| ACAGTGACTTGCATCC (sugars kdddddddddkekeke, PS) | 6% |
| ACCAAAAGTACCACAG (sugars k3 d10 k3, PS) | -8% |
| ACCGCATTGCTAGATT (sugars k3 d10 k3, PS) | 27% |
| ACCTAACTAAATGTCA (sugars k3 d10 k3, PS) | -24% |
| ACCTTCGCGGCCGGCC (sugars k3 d10 k3, PS) | -42% |
| ACGAAGGGCAGTGCCT (sugars k3 d10 k3, PS) | -5% |
| ACGGAAGTTTACACTG (sugars kddddddddddkekek, PS) | 7% |
| ACGGAAGTTTACACTG (sugars kkdddddddddkekek, PS) | 21% |
| ACGGAGGCGGCAGACG (sugars k3 d10 k3, PS) | -9% |
| ACGTGTGCTTGCCAAG (sugars kdddddddddkekeke, PS) | 40% and 35% |
| ACGTGTGCTTGCCAAG (sugars kkdddddddddkdkdk, PS) | 75% and 66% and 56% |
| ACTAACAGGGAGACTG (sugars k3 d10 k3, PS) | -19% |
| ACTAAGCTTGATAAAG (sugars k3 d10 k3, PS) | 14% and 5% |
| ACTCTTAGGCACATCA (sugars k3 d10 k3, PS) | 27% |
| ACTGCCGTGATCTGAG (sugars k3 d10 k3, PS) | 34% and 29% |

same assay, conditions: ASO, MM.1R, 2 µM

| Sequence | target mRNA inhibition |
| --- | --- |
| AATGGATAGTTTCTCA (sugars k3 d10 k3, PS) | 45% |
| ACACTTTTAGAGAGGA (sugars k3 d10 k3, PS) | 72% and 89% |

same assay, conditions: ASO, MM.1R, 4 µM

| Sequence | target mRNA inhibition |
| --- | --- |
| AATGGATAGTTTCTCA (sugars k3 d10 k3, PS) | 45% and 50% |
| ACACTTTTAGAGAGGA (sugars k3 d10 k3, PS) | 74% |
| ACGTGTGCTTGCCAAG (sugars kkdddddddddkdkdk, PS) | 77% |

same assay, conditions: ASO, SK-MEL-28, 4 µM

| Sequence | target mRNA inhibition |
| --- | --- |
| AAAGAGGCACCCTCCT (sugars k3 d10 k3, PS) | -38% |
| AAAGAGGGTCACAGGT (sugars k3 d10 k3, PS) | 34% |
| AAAGATACAAAACGGA (sugars k3 d10 k3, PS) | 38% |
| AAAGGTTCCTGTCACC (sugars k3 d10 k3, PS) | 38% |
| AAAGTAACTGACACGC (sugars k3 d10 k3, PS) | 67% |
| AAAGTCCCATCGAATC (sugars k3 d10 k3, PS) | 13% |
| AAATACGACAACTTTC (sugars k3 d10 k3, PS) | 21% |
| AAATGAGTCGGTCACT (sugars k3 d10 k3, PS) | 55% |
| AAATTAAAGAGCGCAT (sugars k3 d10 k3, PS) | 13% |
| AACACCTGATCTTGCT (sugars k3 d10 k3, PS) | -10% |
| AACAGAGACGCGGTGA (sugars k3 d10 k3, PS) | 10% |
| AACAGGCTATCAGGAT (sugars k3 d10 k3, PS) | 17% |
| AACAGTAAGAGGGCAG (sugars k3 d10 k3, PS) | 63% |
| AACCAATCCCAACACT (sugars k3 d10 k3, PS) | 12% |
| AACCAGTACAGTCCAC (sugars k3 d10 k3, PS) | 35% |
| AACGAGGTAAATCTTC (sugars k3 d10 k3, PS) | 51% |
| AACTATCTTATTCCTC (sugars k3 d10 k3, PS) | 30% |
| AACTCATAGGTGTACA (sugars k3 d10 k3, PS) | 61% |
| AACTCTGAGTAGACTT (sugars k3 d10 k3, PS) | 28% |
| AAGAACTGCTGTGTGT (sugars k3 d10 k3, PS) | 12% |
| AAGACCCCGTATCCCC (sugars k3 d10 k3, PS) | 42% |
| AAGAGGTGCGAGTACC (sugars k3 d10 k3, PS) | 34% |
| AAGCAACACGGGAATT (sugars k3 d10 k3, PS) | 22% |

| Sequence | target mRNA inhibition |
| --- | --- |
| AAGCCGTTCCTTTTCA (sugars k3 d10 k3, PS) | 29% |
| AAGCTAAACTCCTAAG (sugars k3 d10 k3, PS) | 15% |
| AAGGAGGCGGGCCTTG (sugars k3 d10 k3, PS) | 2% |
| AAGGATGGGACCGCCC (sugars k3 d10 k3, PS) | 39% |
| AAGTAACTGACACGCA (sugars k3 d10 k3, PS) | 23% |
| AAGTACTTGGACAGAA (sugars k3 d10 k3, PS) | 54% |
| AAGTCATTGCTCTTGT (sugars k3 d10 k3, PS) | 28% |
| AATAAGCAGAAACAGC (sugars k4 d8 k4, PS) | 39% |
| AATCAGAATGGCGAGT (sugars k3 d10 k3, PS) | 39% |
| AATGGATAGTTTCTCA (sugars k3 d10 k3, PS) | 63% |
| AATGTAAGTGATAGGT (sugars k3 d10 k3, PS) | 80% |
| AATTCTCCTATGCTGA (sugars k3 d10 k3, PS) | 13% |
| ACAAAATGGTGTGTAA (sugars k3 d10 k3, PS) | 7% |
| ACAAGAACTGCTGTGT (sugars k3 d10 k3, PS) | 7% |
| ACAAGTGCTAGGATTC (sugars k3 d10 k3, PS) | 67% |
| ACACACATTAAAGGGT (sugars k3 d10 k3, PS) | 43% |
| ACACACATTTGAGAGC (sugars k3 d10 k3, PS) | 66% |
| ACACAGTCTGCTGCCC (sugars k3 d10 k3, PS) | 51% |
| ACACATCACTTGGTCA (sugars k3 d10 k3, PS) | 78% |
| ACACTGGATCTGAATT (sugars k3 d10 k3, PS) | 46% |
| ACACTTTTAGAGAGGA (sugars k3 d10 k3, PS) | 63% |
| ACAGAAGATCTCTACT (sugars k3 d10 k3, PS) | 32% |
| ACAGATAACGAGGTGC (sugars k3 d10 k3, PS) | 30% |

| Sequence | target mRNA inhibition |
| --- | --- |
| ACAGATAGTTAAGTAC (sugars k3 d10 k3, PS) | 35% |
| ACAGCATAGCATTATC (sugars k3 d10 k3, PS) | 64% |
| ACAGGACCTGGTCCAG (sugars k3 d10 k3, PS) | 35% |
| ACAGGGTGCTCCTGAG (sugars k3 d10 k3, PS) | 23% |
| ACATATCCATGTTGCA (sugars k3 d10 k3, PS) | 79% |
| ACATGGCAGTGGAGCT (sugars k3 d10 k3, PS) | 64% |
| ACATTACTGAGATATC (sugars k3 d10 k3, PS) | 16% |
| ACCAGAACTAATGTCC (sugars k3 d10 k3, PS) | 32% |
| ACCCACACAAGTCTTA (sugars k3 d10 k3, PS) | -4% |
| ACCCACGGACGGAGGC (sugars k3 d10 k3, PS) | -9% |
| ACCTACAAGCAGTCAT (sugars k3 d10 k3, PS) | 46% |
| ACCTGCTGGCAGTTCT (sugars k3 d10 k3, PS) | 61% |
| ACCTTTTTTGGCTCCC (sugars k4 d8 k4, PS) | 19% |
| ACGACAGCATAGCATT (sugars k3 d10 k3, PS) | 67% |
| ACGCAAGTCTGAATTT (sugars k3 d10 k3, PS) | 65% |
| ACGCACACACAAGTGG (sugars k3 d10 k3, PS) | 59% |
| ACTAATACCTACCTGC (sugars k3 d10 k3, PS) | 48% |
| ACTACTATTGTGGAAA (sugars k3 d10 k3, PS) | 18% |
| ACTCACTGGTTCTGAA (sugars k3 d10 k3, PS) | 14% |
| ACTCCATGAGGTTTTC (sugars k3 d10 k3, PS) | 73% |
| ACTGACCTTTACTTCA (sugars k3 d10 k3, PS) | 43% |
